Reference: a melting point compilation (Tetko et al.)

Row | SMILES | melting point [°C]
1 | Cc1cc(C(F)(F)F)n2nc(N)c(/N=N/c3ccc(Cl)cc3Cl)c2n1 | 210
2 | Cc1cc(NN)nc2c1c(C)nn2C | 199 to 205
3 | O=C(c1ccc(Br)cc1)c1[nH]c2c(c1O)C(c1ccc(Br)cc1)c1c(c3ccccc3oc1=O)O2 (configuration not stated) | 230
4 | Cc1c(Cl)c(C)c([N+](=O)[O-])c(O)c1Cl | 227 to 229
5 | NNCc1ccccc1 | 26
6 | CN1C(=O)C=CC1=O | 95
7 | c1ccc2sc(Cc3nc4ccccc4s3)nc2c1 | 92 to 96
8 | O=C(O)CCC(F)(F)C(F)(F)C(F)(F)F | 38 to 39
9 | C[Si](C)(Cl)O[Si](C)(C)Cl | -37.5
10 | COC(=O)C1(O)c2ccccc2-c2ccc(Cl)cc21 (configuration not stated) | 155
11 | Cc1cc(NN)nc(C)n1 | 189 to 190
12 | CC(C)=CCCC(C)C1=C(O)C(=O)C(C)=CC1=O (configuration not stated) | 104
13 | O=C1C(=Cc2ccc(N(CCCl)CCCl)cc2)SC(=S)N1CN1CCOCC1 | 164
14 | NCC(O)CC(=O)O (racemic) | 202
15 | CC(=O)C1(O)CCC2C3CCC4CC(O)CCC4(C)C3CCC21C (configuration not stated) | 265
16 | CC1(C)[C@H](C(=O)OC(C#N)c2cccc(Oc3ccccc3)c2)[C@@H]1C=C(Cl)Cl (some centres not stated) | 79
17 | CC1CCC(C)(COC(=O)C2C(=O)C3(C)CCC2C3(C)C)C1(C)C (configuration not stated) | 146
18 | CCOC(=O)CC(/C=C1\C(=O)C2(C)CCC1C2(C)C)(/C=C1\C(=O)C2(C)CCC1C2(C)C)C(=O)OCC (configuration not stated) | 105
19 | O=C(NC(CO)C(=O)O)OCc1ccccc1 (racemic) | 122 to 126
20 | O=C(Cc1ccccc1)CC(c1ccco1)N1CCCCC1 (configuration not stated) | 130
21 | N#Cc1ccc(C(Cl)=Cc2ccc(C=C(Cl)c3ccc(C#N)cc3[N+](=O)[O-])cc2)c([N+](=O)[O-])c1 | 296
22 | C=CCC#N | -87
23 | Clc1ccc(C=Nc2n[nH]c(N=Cc3ccc(Cl)cc3)c2Cc2ccc(Cl)cc2)cc1 | 228 to 230
24 | Cc1cc(O)cc(C)c1C#N | 176 to 177
25 | CC1=NNC(=O)C1(Br)Br | 131
26 | Cc1nc(I)c(I)[nH]1 | 194 to 195

Row | SMILES | melting point [°C]
27 | CCN(CCO)S(=O)(=O)C(F)(F)C(F)(F)C(F)(F)C(F)(F)C(F)(F)C(F)(F)C(F)(F)C(F)(F)F | 55 to 60
28 | COc1ccc2[nH]c3c(c2c1)CCNC3C (configuration not stated) | 150
29 | CSc1nc(=O)n(C)c2c1CCC2 | 145 to 146
30 | Cc1ccc(-c2onc(C(=O)c3cccs3)c2S(=O)(=O)c2ccccc2)cc1 | 128
31 | N#CC1=C(N)Oc2[nH]nc(C(F)(F)F)c2C1c1ccc(O)cc1 (configuration not stated) | 197
32 | O=C(O)c1cscc1C(=O)O | 227 to 231
33 | CON(C(=O)c1cc(C)oc1C)C1CCCCC1 | 33
34 | CC1=C(C)C2(C)C(C)=C(C)C12C (configuration not stated) | 0.7
35 | CCCC(O)C(CC)CO (configuration not stated) | -40
36 | CCOC(=O)c1[nH]c2cc(Cl)cc(Cl)c2c1C=O | 213 to 217
37 | C[Si](C)(C)C#N | 11
38 | CCCOC(=O)C1=C(C)NC(=O)NC1c1ccccc1O (configuration not stated) | 189
39 | C[C@H](O)C(N)=O | 51 to 55
40 | O=C1C(Cl)=C(Cl)C(Cl)=C(Cl)C1(Cl)Cl | 46 to 49
41 | CO[C@@H](C)C(N)=O | 80 to 84
42 | Cc1cc(C)c(C)c(O)c1C | 118
43 | Nc1cc(Cl)c2nonc2c1[N+](=O)[O-] | 276 to 277
44 | N[C@@H](CS)C(=O)O | 240
45 | CC(=O)Nc1ccc(S(=O)(=O)Nc2ccc([N+](=O)[O-])cc2)cc1 | 240
46 | CCOC(=O)c1sc(SC)c2c1CCCC2=O | 108 to 111
47 | Brc1cc(Br)c(Oc2c(Br)cc(Br)c(Br)c2Br)cc1Br | 171 to 173
48 | CC1CCC2(OC1)OC1CC3C4CC=C5CC(O)CCC5(C)C4CCC3(C)C1C2C (configuration not stated) | 206
49 | CC(C)(C)OC(=O)N1CCN(Cc2ccc(C(=O)O)cc2)CC1 | 196 to 204
50 | Cc1ncsc1C | 83.5
51 | CCCCCCCCOC(=O)CC | -42.6
52 | O=C(Cc1ccccc1)NC(CO)c1ccccc1 (configuration not stated) | 140

Row | SMILES | melting point [°C]
53 | COc1ccc(C(=O)NCc2cccnc2)cc1C(=O)NCc1cccnc1 | 124
54 | CCNC(N)=O | 92.5
55 | CN(C)CCCNc1c2ccccc2nc2cccc([N+](=O)[O-])c12 | 134
56 | OC[C@H]1O[C@@H](n2cnc3c(Cl)ncnc32)[C@H](O)[C@@H]1O | 161 to 163
57 | OCc1cc2c(cc1Cl)OCO2 | 70
58 | COC(=O)c1cnc(SCC(=O)NC(=O)Nc2ccccc2)n1C | 204 to 205
59 | NC(=O)C(F)(F)C(F)(F)C(F)(F)F | 103 to 105
60 | CCCCC(CC)COC(=O)CCCCCCCCC(=O)OCC(CC)CCCC (configuration not stated) | -48
61 | O=C(O)CC(F)(F)F | 9.7
62 | O=C(O)c1cc(Cl)nc(Cl)c1 | 210 to 211
63 | CC1=C(C(=O)OCc2ccccc2)C(c2cccc([N+](=O)[O-])c2)NC(=S)N1 (configuration not stated) | 176
64 | COc1cc2c(cc1C)C(C(=O)O)C2 (configuration not stated) | 138
65 | C=C(C)CCCCCCCCCCCCCCCCC | 20
66 | CCOC(=O)c1c(SC)nn(C(N)=O)c1N | 155
67 | CCC(=O)c1ccc2c(c1)N(CCCN(C)C)c1ccccc1S2 | 69.5
68 | CCCCCC=O | -56
69 | C=C1CCC(O)CC1=CC=C1CCCC2(C)C1CCC2C(C)CCCC(C)C (configuration not stated) | 84.5
70 | COc1ccc(-c2cc3nc(C)cc(C(F)(F)F)n3n2)cc1 | 167
71 | CCC(CO)[N+](=O)[O-] (configuration not stated) | -47
72 | CC(=O)OC1COC(C#N)C(OC(C)=O)C1OC(C)=O (configuration not stated) | 132 to 135
73 | COc1coc(CSP(=O)(OC)OC)cc1=O | 96
74 | Cc1nc(/C(C#N)=C\c2ccccc2Cl)sc1/N=N/c1ccc(Cl)cc1 | 198 to 200
75 | O=CC(O)C(O)CO (configuration not stated) | 164
76 | CCCCOCCCN | -65
77 | C#CCCCCCCCCCCCCCCCCCC | 36

The remaining lines, values ahead:

Row | melting point [°C] | SMILES
78 | 46 to 48 | N#CCOc1ccc(Cl)cc1Cl
79 | 160 to 167 | COC(=O)c1cccc(C(=O)O)c1N
80 | 151 | COc1ccc(N)c(C(=O)O)c1
81 | 110 to 114 | O=C(Cl)c1cccc2nsnc12
82 | 295 | NC(Cc1ccc(O)c(O)c1)C(=O)O (configuration not stated)
83 | 76 to 81 | N#CC1(c2c(F)cccc2Cl)CCCCC1
84 | 126 | CS(=O)(=O)Cc1ccccc1
85 | 32 | C#CC(O)COc1cccc(C(F)(F)F)c1 (configuration not stated)
86 | 98 | COc1ccc(CCC(=O)O)cc1OC
87 | 163 | O=[N+]([O-])c1ccc(C=NO)o1
88 | 197 to 198 | Cc1nn(-c2ccccc2)nc1C(=O)NNC(=N)C(Cl)(Cl)Cl
89 | 26.5 | Ic1cccc(-c2ccccc2)c1
90 | 40 to 44 | O=[N+]([O-])c1ccccc1OCCBr
91 | 72 | ON=Cc1cccc(Br)c1
92 | 84 to 86 | COC(=O)c1cccnc1N
93 | 143 to 149 | O=C1c2ccccc2-c2ccc(Br)cc21
94 | 67 | CCOc1cccc(C=O)c1O
95 | 193 | Oc1cccnc1I
96 | 98 to 100 | COC(=O)c1cncc(Br)c1
97 | 96 | N#C/C(=C\c1c(Cl)cccc1Cl)c1nc(-c2ccccc2)cs1
98 | 168 to 171 | O=C(Cl)c1ccc(-c2csnn2)cc1
99 | 194 | CCOC(=O)NNC(=O)Nc1ccc(Cl)cc1
100 | 151 to 153 | CC(=O)Nc1cc(C)ccc1O
101 | 300 | CC1=NN(c2ccc(S(=O)(=O)O)cc2)C(=O)C1
102 | 37 | CCOC(=O)Cc1ccccc1Br
103 | 55 to 58 | O=C(Cl)c1ccc2nonc2c1
104 | -87 | Cc1cccc(F)c1
105 | 108 to 110 | CCOC(=O)c1csc(-c2cccc(Cl)c2Cl)n1

Row | melting point [°C] | SMILES
106 | -41 | CC(C)(C)c1ccncc1
107 | 250 | O=c1cc(-c2ccc(O)c(O)c2)oc2ccccc12
108 | 80 to 82 | CCOC(=O)/C(=N\Nc1ccccc1)C(=O)C(F)(F)F
109 | 260 | NC(Cc1ccc(Cl)cc1)C(=O)O (configuration not stated)
110 | 55 to 59 | O=C(CCCc1ccccc1)c1ccccc1
111 | 102 to 103 | CCOC(=O)C(C#N)=NNc1ccccc1[N+](=O)[O-]
112 | 132 to 135 | Cn1nc(-c2ccccc2)cc1N
113 | 203 | Nc1nnc(-c2ccccc2)c(Nc2ccc(Br)cc2)n1
114 | 147 to 150 | CC(=CNNc1nc(C)cc(C)n1)c1cccnc1
115 | 126 to 128 | COC(=O)c1ccc(OC)c(S(=O)(=O)Cl)c1
116 | 240 | Nc1cccc(C(=O)O)c1O
117 | 20 | Cc1cc(F)ccc1[N+](=O)[O-]
118 | 145 | c1ccc2c3c([nH]c2c1)CCCCC3
119 | 115 to 118 | NC(=O)c1ccccc1N1CCCCC1
120 | 72 to 82 | CC1(C)c2ccccc2NC1C(=O)O (configuration not stated)
121 | 39 | O=C1CCc2cc(F)ccc21
122 | 119 | N=C(Nc1ccccc1)c1ccccc1
123 | 112 to 114 | NNC(=S)NCCc1ccccc1
124 | 153 to 154 | O=Cc1ccc(SCc2ccco2)c([N+](=O)[O-])c1
125 | 191 to 192 | COc1ccc(C(N)=S)cc1[N+](=O)[O-]
126 | 287 to 291 | Nc1cnccc1C(=O)O
127 | 65 to 68 | CC(=O)c1ccccc1NC=O
128 | 150 | O=C(OCC(=O)N1CCC1C(=O)O)c1ccccc1 (configuration not stated)
129 | 71 to 73 | Cc1c(Cl)cccc1S(=O)(=O)Cl
130 | 84 to 85 | CC(C)(C)OC(=O)N1CCN(Cc2cccc([N+](=O)[O-])c2)CC1
131 | 104 to 106 | N#Cc1ccc2c(c1)OCCO2
132 | 52 | FC(F)(F)c1ccccc1-n1ccnc1
